# Reference: patent US20190350955A1, “METHODS AND PHARMACEUTICAL COMPOSITIONS FOR THE TREATMENT OF CARDIOMYOPATHIES” (INSERM (Institut National de la Sante et de la Recherche …, priority 2016, published 2019)
# What was measured:
# Type in all cases: in vivo, mouse
# TAC mice = assay: RT-qPCR of Nmrk2, Nmrk1, Nampt mRNA after TAC; details: 6 weeks after surgery, NR 400 mg/kg/day
# Experimental: Transverse aorta constriction was performed in 2 month-old male mice under anesthesia (ketamine 100 mg/kg, xylazin 16 mg/kg). Skin was opened above the sternum and the upper part of the sternum was cut on a length of 2 mm allowing the mouse to breath without the need of a ventilator. A surgical suture was passed under the aortic cross between the right brachiocephalic (innominate) artery and left common carotid artery and a 27-½ gauge blunt needle was placed parallel to the wall of the aortic cross as a calibrator. Two loose knots were tied around the aortic cross and the needle. The first knot was quickly tied against the needle, followed by the second and the needle was promptly removed in order to produce a constriction of 0.4 mm in diameter. In sham, mice the procedure was the same except for the constriction of the aorta. NR treatment was started 2 days after the TAC or SHAM surgery.
# cDNAs were reverse transcribed from RNA (1.5 μg) extracted in TRIzol (Thermofisher) from cell cultures and tissues using the Superscript II Reverse Transcriptase (Life Technologies). Quantitative PCR was carried out on a Light Cycler 480 (Roche Diagnostics) using Fast Start SYBR Green Master (Roche Diagnostics). Quantification of gene expression was calculated as R=2^ΔCt(Ref Cp−target Cp), with Hprt used as a as reference. Primers were designed using the NCBI Primer-BLAST software. […]
# SRF^HKO mice = assay: Echocardiography of SRF HKO mice on NR diet
# Source text: Transgenic mice. All experiments with animals conformed to the Directive 2010/63/EU of the European Parliament and were approved by the ethics committee Charles Darvin #5 (agreement 00369.01). SRF^HKO mice bear the tamoxifen-inducible α-MHC-MerCrMer transgene and the Siffloxed allele (Sf/Sf) as described previously (Parlakian et al. (2005). Temporally controlled onset of dilated cardiomyopathy through disruption of the SRF gene in adult heart. Journal 112, 2930-2939; Tritsch et al. (2013). An SRF/miR-1 axis regulates NCX1 and Annexin A5 protein levels in the normal and failing heart. Journal 98, 372-380). Transgenic mice have been bred for more than 20 generations in C57BL/6N background. The mice were housed in standard animal facility (CEF. Hôpital Pitié Salpétrière, agreement A-75-13-15, 75013 Paris), under a 12-h dark/light cycle. Tamoxifen (Sigma T5648) was administrated by i.p. injection at a dose of 0.7 mg diluted in 100 μl peanut oil at day (D) 0, D1 and D2. (Sf/Sf) littermates injected with tamoxifen at the same time than mutant were used as controls.
# SRF^HKO and control (Sf/Sf) mice were administered either rodent maintenance SAFE A04 diet containing 3.10% crude fat. 16.10% crude proteins. 26% starch and 1.9% sugar (Scientific Animal Food Engineering, Paris, France) or SAFE # A04 diet supplemented with NR. NR was provided by Chromadex under brand name NIAGEN (Irvine Calif. USA). The soft pellets were manually prepared every 5 days by mixing 1.65 g of NR into 500 g of powdered SAFE A04 diet and 235 ml of water to reach 2.24 mg of NR/g (wet weight). Control diet was prepared in the same way omitting NR. Mice had ad libitum access to food and water. Mice (average body weight 31.3±0.82 g, no difference between groups) consumed an average of 6 g of soft food per day, reaching a daily intake of 450 mg NR/kg. No difference in food intake was observed between SRF^HKO and control mice.
# Echocardiography was performed on lightly anesthetized mice given isoflurane (induction with 2% isoflurane 100% O2. and maintained with 0.5% isoflurance 100% O2). Non-invasive measurements of left ventricular dimensions were evaluated using Doppler echocardiography (Vivid 7 Dimension/Vivid7 PRO; GE Medical Systems) with a probe ultrasound frequency range of 9-14 MHz. The two-dimensionally guided time-motion recording mode (parasternal long-axis view) of the left ventricle (LV) provided the following measurements: diastolic and systolic septal (IVS) and posterior wall thicknesses (LVPW); internal end-diastolic (LVEDD) and end-systolic diameters (LVESD); and heart rate. Each set of measurements was obtained from the same cardiac cycle. At least 3 sets of measurements were obtained from 3 different cardiac cycles. LV fractional shortening (FS) was calculated using the formula: (LVEDD−LVESD)/LVEDD×100. LV myocardial volume (LVV), LV end-diastolic volume (EDV), and end-systolic volume (ESV) were calculated using a half-ellipsoid model of the LV. From these volumes, LV ejection fraction (EF) was calculated using, the formula: (EDV−ESV)/EDV×100. H/R ratio was calculated by the formula (PWThd+IVSThd)/LVEDd.
# Lmna^H222P/H222P mice = assay: NAD+ content quantification in heart and liver of treated Lmna H222P/H222P mice; details: NR complemented diet 400 mg/kg/day, from 17 weeks of age for 9 weeks, vs chow-diet
# Experimental: Mice were bred in an accredited animal facility (accreditation number: C-75-13-08). All experiments on mice were approved by the Comité d'éthique en expérimentation animate Charles Darwin No 5. Mice Lmna^H222P/H222P were backcrossed 8 times to 129S2/SvPasOrlRj strain mice to obtain pure genetic background. Male mice used for the studies were maintained under a 12 h light/12 h dark cycle at constant temperature (23° C.) with free access to food and water. Nicotinamide riboside (NR) complementation: Animals at 17 weeks of age were fed for 9 weeks with either a chow diet (A04: Scientific Animal Food & Engineering) or a chow diet complemented with 0.25% of NR (kindly provided by ChromaDex, Inc. California) corresponding to a dose of 400 mg/kg/day for a mouse weighing 25 g eating 4 g of food per day. […]
# Fresh mouse tissues were homogenized and processed according to previous report (Sander B J, Oelshlegel F J & Brewer G J (1976) Quantitative analysis of pyridine nucleotides in red blood cells: a single-step extraction procedure. Anal. Biochem. 71: 29-36). The concentration of NAD+ in heart tissue was determined using a spectrophotometric assay at 550 nm based on an alcohol dehydrogenase cycling reaction, in which a Methyl Thiazolyl Tetrazolium (MTT) is reduced to Formazan. […]
# [1] = NR diet, echocardiography D45 to D47
compound,measurement,setting,value
"NC(=O)c1ccc[n+]([C@@H]2O[C@H](CO)[C@@H](O)[C@H]2O)c1 [NR, nicotinamide riboside]","Nmrk2, Nmrk1 and Nampt mRNA levels",TAC mice,no impact
same,LV ejection fraction (LVEF),"SRF^HKO mice; NR diet 0.22% from D5, echocardiography D45 to D47, ± S.D, non-treated SRF HKO 48.1, control mice 73.5",64.8%±8.2
same,LV contractile functions (LVEF and FS),"SRF^HKO mice; NR diet, D45 to D47",clearly protected
same,changes in stroke volume or cardiac output,"SRF^HKO mice; NR diet, D45 to D47",not significant
same,dilatation of LV in systole and diastole,"SRF^HKO mice; NR diet, D45 to D47",fully protected
same,reduction of the H/R ratio (eccentric remodeling),"SRF^HKO mice; NR diet, D45 to D47",fully prevented
same,thinning of the LV wall in systole and diastole,"SRF^HKO mice; NR diet, D45 to D47, more efficiently at posterior wall than interventricular septum",reduced the thinning
same,LV mass index,SRF^HKO mice; [1],did not induce any change
same,heart rate,SRF^HKO mice; [1],did not induce any change
same,NAD+ content in liver and heart,Lmna^H222P/H222P mice,increase of their NAD+ content in both the liver and the heart
